Data: patent US20210268009A1, “Composition For Preventing Hair Loss Or Promoting Hair Regrowth” (LG Household & Health Care Ltd., priority 2018, published 2021)

Tests used:
VEGF = test: Real-time PCR gene expression in dermal papilla cells: VEGF; format: cell-based, human; conditions: for Expression of Genes (%): VEGF: non-treated group = 100; for expression of VEGF, result in words: summary of Table 10
From the text: (§1) In general, it is known that VEGF, IGF-1, FGF, or the like, secreted in dermal papilla cells induce an anagen stage of hair. In addition, versican is known as a marker of an anagen stage of hair and DKK-1 is known as a marker of a catagen stage of hair. Therefore, effects of rhaponticin, rhein, chrysophanol and physicon-O-d-glucopyranoside upon the signals of accelerating an anagen stage and those of inducing a catagen stage in dermal papilla cells were examined according to the present disclosure. In a 6-well culture plate, dermal papilla cells were seeded to each well at 1×10^5 and treated with 10 μg/mL of each of the samples of rhaponticin, rhein, chrysophanol, physicon-O-d-glucopyranoside and combinations thereof as shown in the following Table 10. Then, real-time PCR was used to determine expression of each of VEGF, versican and DKK-1 by using Taqman® probe (Thermo Fisher, Massachusetts, USA) as shown in the following Table 9. [table]

[1] = tested on: Human-derived dermal papilla cells (DPCs); test: Dermal papilla cell proliferation, CCK-8 (Experimental Example 6); format: cell-based; conditions: for Dermal Papilla Cell Proliferation Ability (%): one day, control = 100; for proliferation of dermal papilla cells, result in words: summary of Table 8
Method: Human-derived dermal papilla cells (DPCs) were purchased from PromoCell GmbH. The DPCs were cultured in a DMEM medium (Hyclone Inc., Utah, USA) containing 5% of fetal bovine serum (FBS; Gibco, NY, USA), 10 units/mL of penicillin and 100 μg/mL of streptomycin at 37° C. under 5% of CO2. The cultured DPCs were pipetted to a 96-well plate at 3,000 cells/well and cultured under the condition of 0.1% of serum for 24 hours. Then, the cultured cells were treated with 10 μg/mL of each of the samples of rhaponticin, rhein, chrysophanol, physicon-8-O-glucopyranoside and combinations thereof as shown in the following Table 8 for one day and then incubated, and DMSO (vehicle) diluted to 1:1000 in serum-free DMEM was used as a control and 2 μg/mL of minoxidil was used as a positive control . After incubation, a cell counting kit (CCK) was used to evaluate proliferation of cells. The culture medium was treated with CCK-8 at a ratio of 1:10, followed by incubation for 1 hour. After 1 hour, the absorbance of each well was determined at 450 nm. All tests were repeated three times and the average of absorbance value was calculated. The results are shown by the percentage of a test group as the result of the control is taken as 100.

Versican = test: Real-time PCR gene expression in dermal papilla cells: versican; format: cell-based, human; conditions: for Expression of Genes (%): Versican: non-treated group = 100; for expression of versican, result in words: summary of Table 10
From the text: as §1

DKK-1 = test: Real-time PCR gene expression in dermal papilla cells: DKK-1; format: cell-based, human; conditions: for Expression of Genes (%): DKK-1: non-treated group = 100; for expression of DKK-1, result in words: summary of Table 10
From the text: as §1

β-catenin = test: Expression of β-catenin in dermal papilla cells (SDS-PAGE / anti-β-catenin antibody); format: cell-based, human; conditions: escin 0.2-5 μg/mL, 1 day; GAPDH control; FIG. 2
From the text: In dermal papilla cells in a catagen stage and a telogen stage, during which Wnt signals are inhibited, β-catenin is decomposed by GSK3-beta. However, in dermal papilla cells in an anagen stage, during which Wnt signals are amplified, activity of GSK3-beta is inhibited and β-catenin is not decomposed, resulting in an increase in expression of β-catenin. Human dermal papilla cells were pipetted to six well plates at about 500,000 cells/well, and treated with escin for 1 day at a concentration of 0.2, 0.5, 1.2 and 5 μg/mL, followed by incubation. After incubation, M-PER lysis buffer was used to cause lysis of the cells and the same amount of cell lysate was loaded on SDS-PAGE gel. The cell lysate loaded on SDS-PAGE gel was transferred to a nitrocellulose membrane and anti-β-catenin antibody was attached to the nitrocellulose membrane to detect protein. GAPDH was used as a control for correcting protein content. The amount of β-catenin increased by escin was determined.

[2] = tested on: Wnt/β-catenin promoter activity (Wnt reporter HEK293SA cells); test: Wnt/β-catenin promoter luciferase reporter analysis; format: cell-based; conditions: escin 5, 10 and 20 μg/mL, FIG. 1
Method: In general, Wnt/β-catenin signals activated in dermal papilla cells are generated while a transition from a […] to an anagen stage occurs in the hair growth cycle, i.e. during a period from beginning of hair growth to an activation stage of hair growth. In addition, in a telogen stage and catagen stage, Wnt/β-catenin signals become weak or disappear to cause degradation of hair follicles and depilation. In this Experimental Example, it is determined how escin contributes to amplification of Wnt/β-catenin signals.
As a positive control which amplifies Wnt/β-catenin signals, wnt3a protein was used. In addition, dimethyl sulfoxide (DMSO) was used as a negative control. In a 96-well culture plate, approximately 3×10^4 of Wnt reporter HEK293SA cells were seeded to each well and treatment with escin was carried out at a concentration of 5 μg/mL, 10 μg/mL and 20 μg/mL. Then, a luciferase assay kit (E1960) available from Promega Corp. was used to carry out reporter analysis according to the test method provided by the company. In addition, luminometer Victor (Perkin Elmer, Waltham, Mass., USA) was used to determine Wnt/β-catenin promoter activity.

[3] = tested on: Human-derived dermal papilla cells (DPCs); test: Dermal papilla cell proliferation, CCK-8 (Experimental Example 2, escin); format: cell-based; conditions: one day; for Dermal Papilla Cell Proliferation Ability (%): control = 100
Method: Human-derived dermal papilla cells (DPCs) were purchased from PromoCell GmbH. DPCs were cultured under the conditions of 37° C. and 5% CO2 by using a follicle dermal papilla cell growth medium and supplement mix recommended by PromoCell GmbH. The cultured DPCs were pipetted to a 96-well plate at 3,000 cells/well and cultured for 24 hours in the presence of 0.1% of blood serum. Then, the cultured cells were treated with escin at a concentration of 0.2, 0.5, 1.2 and 5 μg/mL for one day and then incubated, and DMSO (vehicle) diluted to 1:1000 in serum-free DMEM was used as a control. After incubation, a cell counting kit (CCK) was used to evaluate proliferation of cells. The culture medium was treated with CCK-8 at a ratio of 1:10, followed by incubation for 1 hour. After 1 hour, the absorbance of each well was determined at 450 nm. All tests were repeated three times and the average of absorbance value was calculated. The results are shown by the percentage of a test group with the result of the control taken as 100.

| Compound | Expression of Genes (%): VEGF (VEGF; 10 μg/mL) [%] | expression of VEGF, result in words (VEGF) | Dermal Papilla Cell Proliferation Ability (%) ([1]; 10 μg/mL) | proliferation of dermal papilla cells, result in words [1] | Expression of Genes (%): Versican (Versican; 10 μg/mL) [%] | expression of versican, result in words (Versican) | Expression of Genes (%): DKK-1 (DKK-1; 10 μg/mL) [%] | expression of DKK-1, result in words (DKK-1) | other results |
| --- | --- | --- | --- | --- | --- | --- | --- | --- | --- |
| COc1ccc(/C=C/c2cc(O)cc(O[C@@H]3O[C@H](CO)[C@@H](O)[C@H](O)[C@H]3O)c2)cc1O [Rhaponticin] | 210 | increase expression of VEGF | 162.7 | excellent effect of accelerating proliferation of dermal papilla cells | 130 | increase expression | 112 | reduce expression of DKK-1 |  |
| Nc1cc(N2CCCCC2)nc(N)[n+]1[O-] [Minoxidil, 2,4-diamino-6-piperidinopyrimidine-3-oxide, reference compound] |  |  |  |  |  |  |  |  | Expression of Genes (%): VEGF (VEGF; 2 μg/mL): 110%; Dermal Papilla Cell Proliferation Ability (%) ([1]; 2 μg/mL): 187.2%; Expression of Genes (%): Versican (Versican; 2 μg/mL): 134%; Expression of Genes (%): DKK-1 (DKK-1; 2 μg/mL): 128% |
| Escin |  |  |  |  |  |  |  |  | amount of β-catenin in dermal papilla cells, result in words (β-catenin): significant increase in amount of β-catenin; Wnt/β-catenin signal effect compared to the positive control wnt3a protein [2]: higher effect as compared to the positive control; amplification of Wnt/β-catenin signals as compared to the non-treated negative control ([2]; no concentration dependence, clear effect at about 20 μg/mL): approximately 11 times; Dermal Papilla Cell Proliferation Ability (%) ([3]; 0.2 μg/mL): 168.8%; Dermal Papilla Cell Proliferation Ability (%) ([3]; 0.5 μg/mL): 198.7%; Dermal Papilla Cell Proliferation Ability (%) ([3]; 1 μg/mL): 194.4%; Dermal Papilla Cell Proliferation Ability (%) ([3]; 2 μg/mL): 204.8%; Dermal Papilla Cell Proliferation Ability (%) ([3]; 5 μg/mL): 208.3%; DPC proliferation, result in words ([3]; escin 0.2-5 μg/mL): shows an effect of DPC proliferation |
| O=C(O)c1cc(O)c2c(c1)C(=O)c1cccc(O)c1C2=O [Rhein] | 144 | increase expression of VEGF | 152.7 | excellent effect of accelerating proliferation of dermal papilla cells | 154 | increase expression | 76 | reduce expression of DKK-1 |  |
| COc1cc(OC2OC(CO)C(O)C(O)C2O)c2c(c1)C(=O)c1cc(C)cc(O)c1C2=O (stereo not drawn) [Physicon-8-O-d-glucopyranoside] | 164 | increase expression of VEGF | 148.3 | excellent effect of accelerating proliferation of dermal papilla cells | 175 | increase expression | 75 | reduce expression of DKK-1 |  |
| Cc1cc(O)c2c(c1)C(=O)c1cccc(O)c1C2=O [Chrysophanol] | 250 | increase expression of VEGF | 152.0 | excellent effect of accelerating proliferation of dermal papilla cells | 158 | increase expression | 123 | reduce expression of DKK-1 |  |
